{"source": "patent US20050058665A1", "about": "“Identification of virulence determinants activators in prokaryotic pathogens” (Boston Medical Center Corporation, priority 1998, published 2005)", "key": {"[1]": {"target": "T1, DtxR (Corynebacterium diphtheriae, UniProt P0DJL7)", "T1 construct": "expressed in transfected cells; host or cells: E. coli TOP10/λRS65T/pSC6/pRDA", "T1 sequence (P0DJL7 1-226)": "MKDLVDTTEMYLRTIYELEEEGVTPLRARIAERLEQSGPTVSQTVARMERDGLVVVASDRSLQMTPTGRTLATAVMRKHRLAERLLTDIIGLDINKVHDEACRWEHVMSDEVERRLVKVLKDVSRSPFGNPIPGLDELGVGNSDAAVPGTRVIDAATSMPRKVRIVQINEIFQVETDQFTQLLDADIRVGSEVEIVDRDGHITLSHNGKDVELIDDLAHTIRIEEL", "assay": "PSDT system, chloramphenicol resistance phenotype of the indicator strain", "format": "cell-based", "details": "E. coli TOP10/λRS65T/pSC6/pRDA; DP added to growth medium", "source_text": "Development of the PSDT System. The PSDT system, which consists of a lysogenic E. coli TOP1O host strain carrying the reporter gene cat on an integrated λ phage, λRS65T, and a set of detector plasmids, is illustrated in FIG. 1. Expression of cat on λRS65T is controlled by the tetA promoter/operator (tetAPO), and, in the absence of the tetracycline repressor (TetR), E. coli TOP10/λRS65T is resistant to chloramphenicol (Cm^R).\nWe next constructed the detector plasmid pSC6, which carries the tetR gene under the control of the diphtheria toxPO. When pSC6 is transformed into E. coli TOP10/λRS65T, the bacterial host strain becomes Cm-sensitive (Cm^S) by virtue of the constitutive expression of tetR, which recognizes and binds to the tetAO and represses cat gene expression. However, if a functional dtxR allele is introduced into the bacterial host on a second compatible plasmid, PRDA, the interaction between DtxR and the toxO will repress the expression of tetR, and the bacterial host, E. coli TOP10/λRS65T/pSC6/pRDA, then will regain its CM^rphenotype."}, "[2]": {"tested_on": "toxPO-lacZ", "assay": "β-galactosidase assay in toxPO-lacZ reporter strain", "format": "cell-based", "details": "E. coli DH5α/λRS45 toxPO; LB broth, absence or presence of increasing concentrations of DP (up to 250 μM)", "experimental": "β-Galactosidase Assay. β-galactosidase activity was measured essentially as described by Miller (Miller, J. H. (1972) Experiments in Molecular Genetics (Cold Spring Harbor Lab. Press, Plainview, N.Y.)). In brief, 0.5 ml of an overnight culture at ^A600 of =1.0 were lysed by the addition of lysis mix (chloroform:10% SDS, 2:1), vortexing the mixture for 10 sec and transferring 200 μl to 800 ul lacZ buffer (60 mM Na2HPO4/40 mM NaH2PO4/10 mM KCl/1 mM MgSO4/50 mM β-mercaptoethanol). The reaction was initiated by adding 200 μl of o-nitrophenyl β-D-galactopyranoside (Sigma) (4 mg/ml). After incubation at room temperature (5 min-1 hr), the reaction was stopped by the addition of 0.5 ml of 1M sodium carbonate. Absorbance was measured at 420 and 550 nm, and β-galactosidase units were calculated according to Miller, supra.\nThe resulting plasmids were designated pDM2, pDM3, pDM11, and pDM5, respectively. The pDM series of plasmids then were transformed individually into E. coli DH5α/λRS45 toxPO. This reporter strain carries a transcriptional fusion in which the lacZ gene is under the control of the diphtheria toxPO, toxPO-lacZ, and, as a result, the synthesis of β-galactosidase is regulated by their respective dtxR gene products. Individual strains were grown in LB broth supplemented with appropriate antibiotics in either the absence or presence of increasing concentrations of DP. […]"}}, "data": [{"molecule": "c1ccc(-c2ccccn2)nc1", "note": "[DP, 2,2′-dipyridyl]", "values": [{"measurement": "chloramphenicol resistance phenotype", "setting": "[1]", "value": "phenotypic conversion from Cm^R to Cm^S"}]}, {"molecule": "wild-type DtxR (protein, UniProt P0DJL7 1-226, looked up) Diphtheria toxin repressor: MKDLVDTTEMYLRTIYELEEEGVTPLRARIAERLEQSGPTVSQTVARMERDGLVVVASDRSLQMTPTGRTLATAVMRKHRLAERLLTDIIGLDINKVHDEACRWEHVMSDEVERRLVKVLKDVSRSPFGNPIPGLDELGVGNSDAAVPGTRVIDAATSMPRKVRIVQINEIFQVETDQFTQLLDADIRVGSEVEIVDRDGHITLSHNGKDVELIDDLAHTIRIEEL", "values": [{"measurement": "β-galactosidase activity", "setting": "[2]", "value": "β-galactosidase activity increases"}]}]}
